Test results from BindingDB's records for patent US20250282798 (Medshine Discovery, 2025).

Molecular target: Mitogen-activated protein kinase kinase kinase kinase 1 (Homo sapiens, UniProt Q92918)
Assay: Kinase Activity Assay
Protocol: The compound was diluted 50-fold into the kinase reaction buffer, and the mixture was shaken on a shaker for 20 minutes. The kinase was prepared with the enzyme reaction buffer. 2 μL of kinase was added to each well of a reaction plate. 1 μL of the diluted compound in the buffer was added to each well. The plate was sealed with a sealing film, centrifuged at 1000 g for 30 seconds, and placed at room temperature for 10 minutes. The mixed solution of ATP/MBP was prepared with the enzyme reaction buffer. 2 μL of the mixed solution of ATP/MBP was added to the reaction plate. The plate was sealed with a sealing film, and centrifuged at 1000 g for 30 seconds. The mixture in the plate was reacted at room temperature for 60 minutes. […] The plate was incubated at 25° C. for 40 min. […] The plate was incubated at 25° C. for 40 min. The RLU (relative luminescence unit) signal was read with a BMG microplate reader, and the signal intensity was used to characterize the activity of the kinase.

Chain of Mitogen-activated protein kinase kinase kinase kinase 1 (Q92918 whole entry): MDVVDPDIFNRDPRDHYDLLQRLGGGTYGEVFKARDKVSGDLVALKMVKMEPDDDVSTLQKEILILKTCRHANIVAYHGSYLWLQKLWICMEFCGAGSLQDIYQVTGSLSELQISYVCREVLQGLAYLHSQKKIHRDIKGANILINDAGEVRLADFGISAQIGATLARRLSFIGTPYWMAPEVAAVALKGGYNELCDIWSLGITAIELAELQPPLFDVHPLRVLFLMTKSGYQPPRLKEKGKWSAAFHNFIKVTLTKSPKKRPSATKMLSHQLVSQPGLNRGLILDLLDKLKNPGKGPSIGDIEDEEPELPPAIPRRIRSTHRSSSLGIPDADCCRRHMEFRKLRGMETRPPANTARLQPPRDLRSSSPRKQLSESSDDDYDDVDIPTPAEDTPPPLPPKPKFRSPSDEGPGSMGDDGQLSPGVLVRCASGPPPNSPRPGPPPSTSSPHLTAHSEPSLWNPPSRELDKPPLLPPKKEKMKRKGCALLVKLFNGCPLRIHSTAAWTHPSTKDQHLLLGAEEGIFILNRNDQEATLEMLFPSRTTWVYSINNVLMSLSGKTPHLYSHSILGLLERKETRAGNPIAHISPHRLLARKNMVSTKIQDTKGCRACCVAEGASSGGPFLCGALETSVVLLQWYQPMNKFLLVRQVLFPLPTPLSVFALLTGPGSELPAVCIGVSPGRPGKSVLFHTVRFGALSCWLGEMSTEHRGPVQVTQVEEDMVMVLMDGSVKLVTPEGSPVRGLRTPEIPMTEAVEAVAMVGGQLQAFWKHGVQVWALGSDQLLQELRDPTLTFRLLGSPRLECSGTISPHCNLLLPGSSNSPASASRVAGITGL

Row | Structure (SMILES) | IC50 [nM]
1 | COc1cccc(F)c1-c1ccc(Nc2ccc(N3CCOCC3)c(CN(C)C)n2)c2c1CNC2=O [US20250282798, Compound 15] | 1.7
2 | CN1Cc2nc(Nc3ccc(-c4cnc5cc(F)ccn45)c4c3C(=O)NC4)ccc2N2CCOCC2C1 (configuration not stated) [US20250282798, Compound 16] | 0.8
3 | CN1Cc2nc(Nc3ccc(-c4cnc5cc(F)ccn45)c4c3C(=O)NC4)ccc2C2COCC2C1 (configuration not stated) [US20250282798, Compound 17] | 1.3

The remaining lines, values ahead:

Row | IC50 [nM] | Structure (SMILES)
4 | 0.2 | O=C1NCc2c(-c3cnc4cc(F)ccn34)ccc(Nc3ccc4c(n3)CNC(=O)C3COCC43)c21 (configuration not stated) [US20250282798, Compound 18]
5 | 0.3 | Cn1ccc2c(-c3ncc(Nc4ccc5c(n4)OC[C@H]4COCCN54)c4c3CNC4=O)ccnc21 [US20250282798, Compound 20]
6 | 0.02 | Cn1ccc2c(-c3ccc(Nc4ccc5c(n4)CNC(=O)C4COCC54)c4c3CNC4=O)ccnc21 (configuration not stated) [US20250282798, Compound 23]
7 | 0.2 | CN1Cc2nc(Nc3ccc(-c4ccnc5c4ccn5C)c4c3C(=O)NC4)ccc2N2CCOCC2C1 (configuration not stated) [US20250282798, Compound 25]
